target: T1, human TREK-1 (Homo sapiens, UniProt O95069); test: TREK-1 Thallium (Tl+) flux assay, Method 1; type: cell-based; details: TREK-1 Thallium (Tl+) flux assay, Method 1
T1 construct: expressed in transfected cells
T1 sequence (O95069 1-426): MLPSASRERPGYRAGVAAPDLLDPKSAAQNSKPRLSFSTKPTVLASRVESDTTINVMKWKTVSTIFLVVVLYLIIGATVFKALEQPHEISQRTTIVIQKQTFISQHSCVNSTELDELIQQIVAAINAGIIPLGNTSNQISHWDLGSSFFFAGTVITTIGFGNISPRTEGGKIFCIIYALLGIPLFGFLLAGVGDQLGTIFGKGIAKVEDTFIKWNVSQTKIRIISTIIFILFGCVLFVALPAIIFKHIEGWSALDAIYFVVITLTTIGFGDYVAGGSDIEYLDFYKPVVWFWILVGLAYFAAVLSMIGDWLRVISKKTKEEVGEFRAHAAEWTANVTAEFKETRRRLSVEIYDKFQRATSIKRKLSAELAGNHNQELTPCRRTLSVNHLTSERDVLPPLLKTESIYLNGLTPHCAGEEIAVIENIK
Outline: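 Readout: Thallos fluorescence ratio, taken 25 s post-thallium relative to the pre-thallium baseline average, then converted to % inhibition. Cells were CHO-K1 stably expressing human TREK-1, dye-loaded and exposed to test compound (vehicle 0.3% DMSO) for 10 min prior to thallium stimulation.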

Row | IC50 [nM] | Structure (SMILES)
1 | 5210 | CC(=O)N1CCC(n2ncc(Cl)c2C(=O)Nc2ncc(-c3ccc(C(F)(F)F)cc3)cc2C)CC1 [Compound 427, 1-(1-acetylpiperidin-4-yl)-4-chloro-N-(3-methyl-5-(4-(trifluoromethyl)phenyl)pyridin-2-yl)-1H-pyrazole-5-carboxamide]
2 | 2160 | Cc1cc(OCc2ccccc2)ccc1NC(=O)c1c(Cl)cnn1C1CCN(C(=O)C2CCC2)CC1 [Compound 402, N-(4-(benzyloxy)-2-methylphenyl)-4-chloro-1-(1-(cyclobutanecarbonyl)piperidin-4-yl)-1H-pyrazole-5-carboxamide]

same assay, conditions: TREK-1 Thallium (Tl+) flux assay; no *^12 (Method 2) mark on these rows

Row | IC50 [nM] | Structure (SMILES)
3 | 740 | CC(=O)N1CC[C@@H](Cn2ncc(Cl)c2C(=O)Nc2ncc(C#Cc3ccc(F)cc3)cc2C)[C@H](F)C1 [Compound 341, 1-(((3S,4S)-1-acetyl-3-fluoropiperidin-4-yl)methyl)-4-chloro-N-(5-((4-fluorophenyl)ethynyl)-3-methylpyridin-2-yl)-1H-pyrazole-5-carboxamide]
4 | 860 | CC(=O)N1CCC(Cn2ncc(Cl)c2C(=O)Nc2ncc(C#Cc3ccccc3F)cc2C)CC1 [Compound 356, 1-((1-acetylpiperidin-4-yl)methyl)-4-chloro-N-(5-((2-fluorophenyl)ethynyl)-3-methylpyridin-2-yl)-1H-pyrazole-5-carboxamide]
5 | 300 | CC(=O)N1CCC(C(C)n2ncc(Cl)c2C(=O)Nc2ncc(C#Cc3ccccc3)cc2C)CC1 (single isomer, unassigned) [Compound 197, 1-[(1R)-1-(1-acetylpiperidin-4-yl)ethyl]-4-chloro-N-[3-methyl-5-(phenylethynyl)pyridin-2-yl]-1H-pyrazole-5-carboxamide or 1-[(1S)-1-(1-acetylpiperidin-4-yl)ethyl]-4-chloro-N-[3-methyl-5-(phenylethynyl)pyridin-2-yl]-1H-pyrazole-5-carboxamide]
6 | 900 | Cc1cc(-c2cnn(-c3ccc(F)cc3)c2)cnc1NC(=O)c1c(Cl)cnn1C[C@H]1CCOC1 [Compound 387, (R)-4-chloro-N-(5-(1-(4-fluorophenyl)-1H-pyrazol-4-yl)-3-methylpyridin-2-yl)-1-((tetrahydrofuran-3-yl)methyl)-1H-pyrazole-5-carboxamide]
7 | 390 | N#CC1CC(n2ncc(Cl)c2C(=O)Nc2c(F)cc(C#Cc3ccccc3)cc2F)C1 (stereo not shown) [Compound 245, 4-chloro-1-(3-cyanocyclobutyl)-N-(2,6-difluoro-4-(phenylethynyl)phenyl)-1H-pyrazole-5-carboxamide]
8 | 670 | Cc1cc(C#Cc2cccc(F)c2)cnc1NC(=O)c1c(Cl)cnn1[C@H]1CCOC1 [Compound 333, (S)-4-chloro-N-(5-((3-fluorophenyl)ethynyl)-3-methylpyridin-2-yl)-1-(tetrahydrofuran-3-yl)-1H-pyrazole-5-carboxamide]
9 | 350 | Cc1cc(C#Cc2ccc(F)cc2)cnc1NC(=O)c1c(Cl)cnn1C1CCN(C(=O)C2COCCO2)C1 (stereo not shown) [Compound 230, 1-(1-(1,4-dioxane-2-carbonyl)pyrrolidin-3-yl)-4-chloro-N-(5-((4-fluorophenyl)ethynyl)-3-methylpyridin-2-yl)-1H-pyrazole-5-carboxamide]

same assay, conditions: TREK-1 Thallium (Tl+) flux assay; values without footnote *12 are Method 1

Row | IC50 [nM] | Structure (SMILES)
10 | 270 | CC(=O)N1CCCC(Cn2ncc(Cl)c2C(=O)Nc2ncc(C#Cc3ccccc3)cc2F)C1 (stereo not shown) [Compound 177, 1-((1-acetylpiperidin-3-yl)methyl)-4-chloro-N-(3-fluoro-5-(phenylethynyl)pyridin-2-yl)-1H-pyrazole-5-carboxamide]
11 | 200 | Cc1cc(C#Cc2ccc(F)cc2)cnc1NC(=O)c1c(Cl)cnn1C1CC2(C1)CN(C(=O)C1CC1)C2 [Compound 115, 4-chloro-1-(2-(cyclopropanecarbonyl)-2-azaspiro[3.3]heptan-6-yl)-N-(5-((4-fluorophenyl)ethynyl)-3-methylpyridin-2-yl)-1H-pyrazole-5-carboxamide]
12 | 270 | CC(C)C(=O)N1CCC(n2ncc(Cl)c2C(=O)Nc2ncc(C#Cc3cccs3)cc2F)CC1 [Compound 175, 4-chloro-N-(3-fluoro-5-(thiophen-2-ylethynyl)pyridin-2-yl)-1-(1-isobutyrylpiperidin-4-yl)-1H-pyrazole-5-carboxamide]
13 | 260 | CC(=O)N1CCC(C)(Cn2ncc(Cl)c2C(=O)Nc2ncc(C#Cc3ccccc3)cc2C)CC1 [Compound 166, 1-((1-acetyl-4-methylpiperidin-4-yl)methyl)-4-chloro-N-(3-methyl-5-(phenylethynyl)pyridin-2-yl)-1H-pyrazole-5-carboxamide]

More lines, now with the values behind:

Row | Structure (SMILES) | IC50 [nM]
14 | O=C(Nc1ncc(C#Cc2cccs2)cc1F)c1c(Cl)cnn1CC1CCOCC1 [Compound 69, 4-chloro-N-(3-fluoro-5-(thiophen-2-ylethynyl)pyridin-2-yl)-1-((tetrahydro-2H-pyran-4-yl)methyl)-1H-pyrazole-5-carboxamide] | 160
15 | Cc1cc(C#Cc2cccs2)cnc1NC(=O)c1c(Cl)cnn1C1CC2(C1)CN(C(=O)C1COCCO1)C2 (stereo not shown) [Compound 97, 1-(2-(1,4-dioxane-2-carbonyl)-2-azaspiro[3.3]heptan-6-yl)-4-chloro-N-(3-methyl-5-(thiophen-2-ylethynyl)pyridin-2-yl)-1H-pyrazole-5-carboxamide] | 180
16 | Cc1cc(C#Cc2ccccc2)cnc1NC(=O)c1c(Cl)cnn1C1CCN(C(=O)C2CC2)C1 (stereo not shown) [Compound 79, 4-chloro-1-(1-(cyclopropanecarbonyl)pyrrolidin-3-yl)-N-(3-methyl-5-(phenylethynyl)pyridin-2-yl)-1H-pyrazole-5-carboxamide] | 160
17 | Cc1cc(C#Cc2ccccc2)cnc1NC(=O)c1c(Cl)cnn1C1CN(C(=O)C2CC2)C1 [Compound 87, 4-chloro-1-(1-(cyclopropanecarbonyl)azetidin-3-yl)-N-(3-methyl-5-(phenylethynyl)pyridin-2-yl)-1H-pyrazole-5-carboxamide] | 170
18 | CC(=O)N1CCC(n2ncc(Cl)c2C(=O)Nc2c(C)cc(C#Cc3ccccc3)cc2F)CC1 [Compound 37, 1-(1-acetylpiperidin-4-yl)-4-chloro-N-(2-fluoro-6-methyl-4-(phenylethynyl)phenyl)-1H-pyrazole-5-carboxamide] | 120
19 | O=C(Nc1ncc(C#Cc2ccccc2)cc1F)c1c(Cl)cnn1CC1CCOCC1 [Compound 68, 4-chloro-N-(3-fluoro-5-(phenylethynyl)pyridin-2-yl)-1-((tetrahydro-2H-pyran-4-yl)methyl)-1H-pyrazole-5-carboxamide] | 160
20 | CC(=O)N1CCC(n2ncc(Cl)c2C(=O)Nc2ncc(C#Cc3ccccc3)cc2C)CC1C (stereo not shown) [Compound 61, 1-(1-acetyl-2-methylpiperidin-4-yl)-4-chloro-N-(3-methyl-5-(phenylethynyl)pyridin-2-yl)-1H-pyrazole-5-carboxamide] | 150
21 | Cc1cc(C#Cc2ccccc2)cnc1NC(=O)c1c(Cl)cnn1C(C)C1CCN(C(=O)C(C)C)CC1 (stereo not shown) [Compound 28, 4-chloro-1-(1-(1-isobutyrylpiperidin-4-yl)ethyl)-N-(3-methyl-5-(phenylethynyl)pyridin-2-yl)-1H-pyrazole-5-carboxamide] | 90
22 | CC(C)(C)C(=O)N1CCC(n2ncc(Cl)c2C(=O)Nc2ncc(C#Cc3ccccc3)cc2F)CC1 [Compound 100, 4-chloro-N-(3-fluoro-5-(phenylethynyl)pyridin-2-yl)-1-(1-pivaloylpiperidin-4-yl)-1H-pyrazole-5-carboxamide] | 190
